Laboratory results published in paper PMC4434909, “In vitro properties of designed antimicrobial peptides that exhibit potent antipneumococcal activity and produces synergism in combination with penicillin” (Scientific Reports, 2015).
Where no end group is shown, it is not given here.

Assays:
[1] = tested on: PRSP, PISP, and PSSP; type: cell-based, Streptococcus pneumoniae; details: for difference in killing kinetics over PEN, average: 2
Description: (§1) This assay was performed to evaluate the killing kinetics of peptides. One PRSP, PISP, and PSSP isolate were each grown and prepared to 5 × 10^6 CFU/ml. Each isolate in CAMHB was challenged with peptides at two times the respective MIC values. At the indicated time intervals (0, 30, 60, 120, 150, 180, 210, and 240 min; “0” indicate pretreatment), 10 μl of suspension was removed and immediately serially diluted in cold phosphate-buffered saline to arrest further reaction before spread-plated on MHA to obtain viable colony counts. The percentage cell recovered was calculated by dividing the surviving CFU of the treated cells over the surviving CFU of the untreated control cells at the respective time points. Results were pooled from three independent experiments and expressed as mean ± standard deviation (SD).

[2] = tested on: PSSP; type: cell-based, Streptococcus pneumoniae; details: 2
Description: as §1

[3] = tested on: PISP; type: cell-based, Streptococcus pneumoniae; details: for difference in killing kinetics over PEN, PISP: 2
Description: as §1

[4] = tested on: PRSP; type: cell-based, Streptococcus pneumoniae; details: for difference in killing kinetics over PEN, PRSP: 2
Description: as §1

[5] = tested on: penicillin-intermediate S. pneumoniae (PISP); type: cell-based, Streptococcus pneumoniae; details: for MIC, PISP: MIC range over 20 PISP isolates, CLSI broth microdilution, CAMHB with 5% laked horse blood, 18–24 hrs 37°C 5% CO2, peptides 1.96–250 μg/ml, three independent experiments; for EP %, PISP: effective percentage: proportion of isolates inhibited within the MIC range
From the text: (§2) All bacterial strains were obtained from Department of Medical Microbiology, University of Malaya. Clinical isolates were previously obtained from University of Malaya Medical Centre and maintained in the laboratory. Sheep blood agar was used for pneumococcal cultivation purpose. Nutrient agar was used for cultivating E. coli ATCC 25922, S. aureus ATCC 25923, and P. aeruginosa ATCC 15442, Acinetobacter baumanii ATCC 15308, and one clinical isolate for each MRSA, E. cloacae, Citrobacter spp., and K. pneumoniae. For antimicrobial testing, Mueller-Hinton agar (MHA) and cationically-adjusted MHB (CAMHB) were prepared according to the Clinical and Laboratory Standard Institute guidelines. MHA for S. pneumoniae was supplemented with 5% (v/v) defibrinated sheep blood and 5% laked horse blood for CAMHB. All bacterial cultures were stored in multiple vials in brain heart infusion broth supplemented with 10% (v/v) glycerol at −80°C to avoid repeated freeze-thawed cycles on the cells. All freeze-stocked strains were passaged twice prior to experimentation.
(§3) Procedures were performed to determine the MIC of peptides according to the CLSI guidelines[21] against 60 pneumococcal isolates which consisted of 20 isolates each for PRSP, PISP, and PSSP. Strains were grown for 18–24 hrs at 37°C under 5% CO2. Direct suspension of the colonies were made in CAMHB and adjusted to OD625 0.08–0.1 which corresponds to 1 ~ 2 × 10^8 CFU/ml followed by serial ten-fold dilutions to give 1 × 10^6 CFU/ml. Fifty microliters of bacterial suspension was then aliquoted to 96-well round bottom microtiter plates containing equal volume of serially diluted peptides to give final concentrations of peptides encompassing the range of 1.96–250 μg/ml. […] The plates were incubated for 18–24 hrs at 37°C under 5% CO2. MIC was read as the concentration of peptide producing complete inhibition on the visible growth of the test organism. Results were pooled from three independent experiments. MIC range was defined as the range of concentrations where the peptides produce detectable antimicrobial activity. Effective percentage (EP) was the proportion of pneumococcal isolates inhibited within the MIC range. Since the isolates tested were obtained prior to 2008 where major revision in antibiotic susceptibility breakpoints were introduced, thus the pneumococci were defined according to the PEN susceptibility breakpoint (prior 2008) which corresponds to the PEN (oral penicillin V) breakpoint of the revised criteria.

[6] = tested on: penicillin-susceptible S. pneumoniae (PSSP); type: cell-based, Streptococcus pneumoniae; details: for MIC, PSSP: MIC range over 20 PSSP isolates, CLSI broth microdilution, CAMHB with 5% laked horse blood, 18–24 hrs 37°C 5% CO2, peptides 1.96–250 μg/ml, three independent experiments; for EP %, PSSP: effective percentage: proportion of isolates inhibited within the MIC range
From the text: as §2, §3

[7] = tested on: S. pneumoniae; type: cell-based, Streptococcus pneumoniae; details: for Overall EP: proportion of the 60 pneumococcal isolates inhibited within the MIC range
From the text: as §2, §3

[8] = tested on: A549 cell line; assay: Cytotoxicity against human cell lines (CellTiter 96 AQueous); type: cell-based
Description: (§4) Both the NL20 human lung bronchial normal epithelial cell line and the A549 human lung alveolar adenocarcinoma epithelial cell line were used for cell cytotoxicity tests. Besides investigating the cytotoxicity of peptides, differences in cell viability between the two cell lines can be used to evaluate the cell line selectivity and to assess potential anticancer potential of the peptides. NL20 cell line was grown in Ham's F12 medium and A549 cell line was grown in Roswell Park Memorial Institute medium. Both media were supplemented with fetal bovine serum to 10% (v/v) as growth medium or 2% (v/v) as maintenance medium in cell cytotoxicity testing. The assay was performed as described by Lee et al.[26]. NL20 cells was seeded overnight at 3 × 10^4 cells/well in 96-well cell culture-treated flat bottom microtiter plate and treated with serial dilutions of peptide at a final concentration of 1.95–250 μg/ml. PEN was tested from 0.03–4 μg/ml, the same range used to classify the susceptibility of pneumococcal isolates in this study. Test using A549 cells followed the same procedures with 1 × 10^4 cells/well. Plates were incubated at 37°C under 5% CO2 for 24, 48, and 72 hrs. Cell viability was detected by using CellTiter 96® AQueous Non-Radioactive Cell Proliferation assay (Promega, USA) and the colorimetric changes were read with Glomax multidetection system (Promega, USA) at OD 490 nm. Results were pooled from three independent experiments and expressed as mean ± SD. […] Imax was the percentage of cell viable treated with peptides/PEN at the maximum concentration as defined throughout this study (all peptides 250 μg/ml, PEN 4 μg/ml).

[9] = tested on: NL20 cell line; assay: as above; type: cell-based
Description: as §4

[10] = 30 min post treatment, 2× MIC, 5 × 10^6 CFU/ml in CAMHB, plate count, relative to untreated control

Substance	difference in killing kinetics over PEN, average [1] [%]	difference in killing kinetics over PEN, PSSP [2] [%]	difference in killing kinetics over PEN, PISP [3] [%]	difference in killing kinetics over PEN, PRSP [4] [%]	MIC, PISP [5] [µg/mL]	EP %, PISP [5]	MIC, PSSP [6] [µg/mL]	EP %, PSSP [6]	Overall MIC [7] [µg/mL]	Overall EP [7] [%]	IC50, A549 cell line, 24 hrs [8] [µg/mL]	IC50, A549 cell line, 48 hrs [8] [µg/mL]	IC50, A549 cell line, 72 hrs [8] [µg/mL]	Imax, NL20 cell line, 24 hrs [9] [%]	Imax, NL20 cell line, 48 hrs [9] [%]	Imax, NL20 cell line, 72 hrs [9] [%]	IC50, NL20 cell line, 24 hrs ([9]; 24 h) [µg/mL]	IC50, NL20 cell line, 48 hrs ([9]; 48 h) [µg/mL]	IC50, NL20 cell line, 72 hrs ([9]; 72 h) [µg/mL]	further results
GLFDIWAWWRWRR-NH2 [DM2]	61.3	54.4	65.4	64.1	7.81 to 250	(100.0) %	15.63 to 250	(100.0) %	7.81 to 250	100.0	> 250	197.7	165.0	64.3 ± 7.0	53.3 ± 9.1	46.8 ± 4.0	>250	>250	241.5 ± 9.0	CFU recovered (viability), all three groups of pneumococci [1, 10]: < 6.0%; CFU recovered, PISP [3, 10]: 12.4%; CFU recovered, PRSP [4, 10]: completely killed
GLFDIWKKLRWRR-NH2 [DM5]	44.4	36.5	58.5	38.1	15.63 to 125	(100.0) %	15.63 to 125	(100.0) %	15.63 to 125	100.0	97.0 ± 9.8	106.3 ± 15.7	101.7 ± 9.5	7.3 ± 2.4	8.3 ± 4.2	9.7 ± 5.4	179.2 ± 3.8	188.2 ± 4.9	191.7 ± 3.5	IC50 of NL20 cells higher than A549 cells by, 24 hrs ([9]; 24 h): 82.2 µg/mL; IC50 of NL20 cells higher than A549 cells by, 48 hrs ([9]; 48 h): 81.9 µg/mL; IC50 of NL20 cells higher than A549 cells by, 72 hrs ([9]; 72 h): 90.0 µg/mL
